# Test results taken from US8853206B2, “Triazolium salts as PAR1 inhibitors, production thereof, and use as medicaments” (Sanofi, priority 2008, dated 2014).
# Where a name gives a salt, the structure may show the parent alone.
# Molecular target: T1, PAR1 (Homo sapiens (Human), UniProt P25116)
# Test: Inhibition of PAR1-mediated platelet aggregation induced by TRAP
# Type: cell-based
# Details: TRAP-induced aggregation of washed platelets from healthy volunteer donors, 96-well format
# Description: PAR1 Determination Method: Inhibition of PAR1-Mediated Platelet Aggregation The pharmacological testing of the substances took place in platelet aggregation induced by TRAP (thrombin receptor-activating peptide) in 96-well format. For this purpose, blood was taken from healthy volunteer donors in 20 ml syringes containing 2 ml of 3.13% sodium citrate solution. After centrifugation at 150×g for 20 minutes, the platelet-rich plasma (PRP) was separated off and mixed with 1 μl of PGE1 solution (500 μg/ml in ethanol)/ml of PRP. Incubation at RT for 5 minutes was followed by centrifugation at 120×g for 15 minutes to remove the leukocytes. The leukocyte-free PRP was transferred in 5 ml portions into 15 ml PP tubes and centrifuged at 360×g for 15 minutes in order to pellet the platelets. The plasma was then decanted off and the platelet sediment from 5 ml of PRP was resuspended in 1 ml of Tyrode's (120 mM NaCl, 2.6 mM KCl, 12 mM NaHCO3, 0.39 mM NaH2PO4×H2O, 10 mM HEPES, 0.35% BSA, 5.5 mM glucose, pH 7.4) and adjusted with Tyrode's to a platelet count of 3×10^5/microliter (4). 13 ml of this cell suspension were then mixed with 866 μL of 10 mM CaCl2 solution, and 120 μL thereof were pipetted into each well of a 96-well plate containing 15 μL of the substance to be tested. After incubation at RT in the dark for 30 minutes, 15 μL of a TRAP solution (70-100 μM) were added as agonist, and kinetics were recorded at 650 nm in a SpectraMax 340 at 37° C. for 20 minutes while shaking. The areas under the curves of negative control (Tyrode's/DMSO) and positive control (15 μl of agonist/DMSO) were calculated and the difference was fixed as the 100% value. The substances to be tested were pipetted as serial dilutions in duplicate determination, the AUC was likewise determined for each substance concentration, and the % inhibition of the AUC compared with the control was calculated. On the basis of the % inhibition, the IC50 was calculated by nonlinear regression analysis according to the 4-parameter equation.
# T1 sequence (P25116 22-425): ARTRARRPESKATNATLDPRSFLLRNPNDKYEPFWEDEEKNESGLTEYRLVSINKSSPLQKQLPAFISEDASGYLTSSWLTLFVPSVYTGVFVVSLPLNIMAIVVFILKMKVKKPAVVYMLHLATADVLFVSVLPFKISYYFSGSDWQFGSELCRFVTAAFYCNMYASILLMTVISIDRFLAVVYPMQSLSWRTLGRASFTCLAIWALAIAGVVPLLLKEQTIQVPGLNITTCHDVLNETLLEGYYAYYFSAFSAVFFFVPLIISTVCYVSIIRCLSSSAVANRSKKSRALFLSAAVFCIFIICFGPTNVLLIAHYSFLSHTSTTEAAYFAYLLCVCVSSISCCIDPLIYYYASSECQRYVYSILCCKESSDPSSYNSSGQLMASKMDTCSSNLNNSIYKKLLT
row,SMILES,IC50 [nM]
1,"CCOC(=O)c1cn2c(N)n[n+](CC(=O)c3cc(N4CCOCC4)c(OC)c(C(C)(C)C)c3)c2cc1OCC [Example 8, 3-Amino-1-[2-(3-tert-butyl-4-methoxy-5-morpholin-4-yl-phenyl)-2-oxoethyl]-7-ethoxy-6-ethoxycarbonyl-[1,2,4]triazolo[4,3-a]pyridin-1-ium trifluoroacetate]",4400
2,"COc1c(N2CCOCC2)cc(C(=O)C[n+]2nc(N)n3cc(C(F)(F)F)ccc32)cc1C(C)(C)C [Example 4, 3-Amino-1-[2-(3-tert-butyl-4-methoxy-5-morpholin-4-ylphenyl)-2-oxoethyl]-6-trifluoromethyl-[1,2,4]triazolo[4,3-a]pyridin-1-ium trifluoroacetate]",126
3,"CC(C)(C)c1cc(C(=O)C[n+]2nc(N)n3ccccc32)cc(C(C)(C)C)c1O [Example 3, 3-Amino-1-[2-(3,5-di-tert-butyl-4-hydroxyphenyl)-2-oxoethyl]-[1,2,4]triazolo[4,3-a]pyridin-1-ium trifluoroacetate]",1080
4,"CCC(CC)Oc1ccc2n(n1)c(N)n[n+]2CC(=O)c1cc(OC)c(OC)c(OCC2CCCCC2)c1 [Example 38, 3-Amino-1-[2-(3-cyclohexylmethoxy-4,5-dimethoxyphenyl)-2-oxoethyl]-6-(1-ethylpropoxy)-[1,2,4]triazolo[4,3-b]pyridazin-1-ium chloride]",240
5,"CCCCOc1ccc2n(n1)c(N)n[n+]2CC(=O)c1cc(COC)cc(C(C)(C)C)c1 [Example 39, 3-Amino-6-butoxy-1-[2-(3-tert-butyl-5-methoxymethylphenyl)-2-oxoethyl]-[1,2,4]triazolo[4,3-b]pyridazin-1-ium chloride]",37

# Second part, the compound after the results:
row,IC50 [nM],SMILES
1,6,"CCOc1cc(C(=O)C[n+]2nc(N)n3nc(OC(CC)CC)ccc32)cc(C(C)(C)C)c1 [Example 32, 3-Amino-1-[2-(3-tert-butyl-5-ethoxyphenyl)-2-oxoethyl]-6-(1-ethylpropoxy)-[1,2,4]triazolo[4,3-b]pyridazin-1-ium chloride]"
2,5,"CCC(CC)Oc1ccc2n(n1)c(N)n[n+]2CC(=O)c1cc(OC)cc(S(F)(F)(F)(F)F)c1 [Example 26, 3-Amino-6-(1-ethylpropoxy)-1-{2-[3-methoxy-5-(pentafluorosulfanyl)phe-nyl]-2-oxoethyl}-[1,2,4]triazolo[4,3-b]pyridazin-1-ium trifluoroacetate]"
3,< 14,"CCOc1ccc2n(n1)c(N)n[n+]2CC(=O)c1cc(NC(C)=O)cc(S(F)(F)(F)(F)F)c1 [Example 1, 1-{2-[3-Acetylamino-5-(pentafluorosulfanyl)phenyl]-2-oxoethyl}-3-amino-6-ethoxy-[1,2,4]triazolo[4,3-b]pyridazin-1-ium trifluoroacetate]"

# Molecular target: T1, PAR1
# Test: PAR1 binding test (radioligand displacement, membrane preparation)
# Details: human PAR1 expressed in High Five insect cell membranes; radioligand 20 nM; read-out: Inhibition of binding IC50
# Description: The synthesized substances were examined in a PAR1 binding test. This tested whether the substances can inhibit the binding of a radioactively labeled PAR1 agonist known from the literature at the PAR1 receptor (Ho-Sam Ahn, Mol Pharm, 51:350-356, 1997).
# The human PAR1 receptor was expressed transiently in High Five insect cells. From these cells, after 48 hours, a membrane preparation was produced by standard methods, aliquoted into 10 mM Tris-HCl; 0.3 mM EDTA; 1 mM EGTA; 250 mM sucrose pH 7.5, and stored at −80° C.
# The substances were preincubated with the membrane at RT for 15 minutes, then the radioligand (ALA-(para-F-Phe)-Arg-ChA-homoArg-(3,4-^3H-Tyr)-NH2; approx. 40 Ci/mMol) was added. The end concentration of the radioligand in the test buffer (50 mM Tris-HCl; 10 mM MgCl2; 1 mM EGTA; 0.1% BSA; 2% DMSO) was 20 nM, that of the membrane 1 mg/ml. After an incubation time of 60 minutes, 25 μL of the mixture were transferred to a 96-well MultiScreenHTS FB microtiter filtration plate (from Millipore), which had been pretreated beforehand with a 0.75% aqueous polyethyleneimine solution for 5 hours at RT. Thereafter, with vacuum extraction, each well was washed four times with 300 μL of buffer (50 mM Tris-HCl; 10 mM MgCl2; 1 mM EGTA). The plate was then dried overnight, 100 μl of scintillator per well were added, and the plate was analyzed after 6 hours in a Wallac MicroBeta (from PerkinElmer) liquid scintillation counter. The nonspecific binding was determined in the presence of 100 μM SCH79797 (PAR-1 antagonist; from Tocris, Cat. No. 1592) and subtracted from all measurements. The 100% value used was a control without inhibitor. The % inhibition values of a substance dilution series were used to calculate the IC50 with the aid of nonlinear regression analysis according to the 4-parameter equation.
row,SMILES,IC50 [nM]
1,"CCC(CC)Oc1nn2c(N)n[n+](CC(=O)c3cc(N4CCOCC4)c(OC)c(C(C)(C)C)c3)c2cc1C1CC1 [Example 76, 3-Amino-1-[2-(3-tert-butyl-4-methoxy-5-morpholin-4-ylphenyl)-2-oxoethyl]-7-cyclopropyl-6-(1-ethylpropoxy)-[1,2,4]triazolo[4,3-b]pyridazin-1-ium chloride]",1400
2,"CCc1ccc2n(n1)c(N)n[n+]2CC(=O)c1cc(N2CCOCC2)c(OC)c(C(C)(C)C)c1 [Example 60, 3-Amino-1-[2-(3-tert-butyl-4-methoxy-5-morpholin-4-ylphenyl)-2-oxoethyl]-6-ethyl-[1,2,4]triazolo[4,3-b]pyridazin-1-ium trifluoroacetate]",2100
3,"CCOc1nn2c(NC)n[n+](CC(=O)c3cc(N4CCOCC4)c(OC)c(C(C)(C)C)c3)c2c(C)c1C [Example 72, 1-[2-(3-tert-Butyl-4-methoxy-5-morpholin-4-ylphenyl)-2-oxoethyl]-6-ethoxy-7,8-dimethyl-3-methylamino-[1,2,4]triazolo[4,3-b]pyridazin-1-ium trifluoroacetate]",1700

# Next, values leading:
row,IC50 [nM],SMILES
1,8400,"CCOc1nn2c(N)n[n+](CC(=O)c3cc(OCCCO)c(OC)c(C(C)(C)C)c3)c2cc1CC [Example 82, 3-Amino-1-{2-[3-tert-butyl-5-(3-hydroxypropoxy)-4-methoxyphenyl]-2-oxoethyl}-6-ethoxy-7-ethyl-[1,2,4]triazolo[4,3-b]pyridazin-1-ium chloride]"
2,152,"CCOCc1cc(C(=O)C[n+]2nc(N)n3nc(OC(CC)CC)ccc32)cc(C(C)(C)C)c1 [Example 27, 3-Amino-1-[2-(3-tert-butyl-5-ethoxymethylphenyl)-2-oxoethyl]-6-(1-ethylpropoxy)-[1,2,4]triazolo[4,3-b]pyridazin-1-ium chloride]"
3,114,"CCC(CC)Oc1ccc2n(n1)c(N)n[n+]2CC(=O)c1cc(OC)cc(C(C)C)c1 [Example 46, 3-Amino-6-(1-ethylpropoxy)-1-]2-(3-isopropyl-5-methoxyphenyl)-2-oxoethyl]-[1,2,4]triazolo[4,3-b]pyridazin-1-ium chloride]"
4,132,"CCC(CC)Oc1ccc2n(n1)c(N)n[n+]2CC(=O)c1cc(OCC2CC2)cc(C(C)(C)C)c1 [Example 35, 3-Amino-1-[2-(3-tert-butyl-5-cyclopropylmethoxyphen-yl)-2-oxoethyl]-6-(1-ethylpropoxy)-[1,2,4]triazolo[4,3-b]pyridazin-1-ium chloride]"
5,601,"CCC(CC)Oc1ccc2n(n1)c(N)n[n+]2CC(=O)c1cc(Cl)cc(OC)c1 [Example 40, 3-Amino-1-[2-(3-chloro-5-methoxyphenyl)-2-oxoethyl]-6-(1-ethylpropoxy)-[1,2,4]triazolo[4,3-b]pyridazin-1-ium chloride]"
6,136,"CCOc1cc(C(=O)C[n+]2nc(N)n3nc(OC(CC)CC)ccc32)cc(C(C)(C)C)c1OCC [Example 29, 3-Amino-1-[2-(3-tert-butyl-4,5-diethoxyphenyl)-2-oxoethyl]-6-(1-ethylpropoxy)-[1,2,4]triazolo[4,3-b]pyridazin-1-ium chloride]"
7,85,"CCC(CC)Oc1ccc2n(n1)c(N)n[n+]2CC(=O)c1cc(OCCOC)cc(C(C)(C)C)c1 [Example 54, 3-Amino-1-{2-[3-tert-butyl-5-(2-methoxyethoxy)phenyl]-2-oxoethyl}-6-(1-ethylpropoxy)-[1,2,4]triazolo[4,3-b]pyridazin-1-ium chloride]"
8,10000,"CCC(CC)Oc1ccc2n(n1)c(N)n[n+]2CC(=O)c1cc(OC)cc(OCC2CCCCC2)c1 [Example 47, 3-Amino-1-[2-(3-cyclohexylmethoxy-5-methoxyphenyl)-2-oxoethyl]-6-(1-ethylpropoxy)-[1,2,4]triazolo[4,3-b]pyridazin-1-ium chloride]"
